Test results as given in ChEMBL document CHEMBL4265945, “Synthesis, biological evaluation and structure-activity relationship of a novel class of PI3Kα H1047R mutant inhibitors” (Eur J Med Chem, 2018).
Active and inactive are the calls of the source. The calls are words filed in the database; no cut-off is given here.

Columns and labels:
[1] = target: Phosphatidylinositol 4,5-bisphosphate 3-kinase catalytic subunit alpha isoform (Homo sapiens, UniProt P42336, H1047R); assay: Inhibition of PI3Kalpha H1047R mutant (unknown origin) by HTRF assay
Phosphatidylinositol 4,5-bisphosphate 3-kinase catalytic subunit alpha isoform (Homo sapiens, UniProt P42336, H1047R), sequence (P42336 whole entry H1047R, canonical isoform): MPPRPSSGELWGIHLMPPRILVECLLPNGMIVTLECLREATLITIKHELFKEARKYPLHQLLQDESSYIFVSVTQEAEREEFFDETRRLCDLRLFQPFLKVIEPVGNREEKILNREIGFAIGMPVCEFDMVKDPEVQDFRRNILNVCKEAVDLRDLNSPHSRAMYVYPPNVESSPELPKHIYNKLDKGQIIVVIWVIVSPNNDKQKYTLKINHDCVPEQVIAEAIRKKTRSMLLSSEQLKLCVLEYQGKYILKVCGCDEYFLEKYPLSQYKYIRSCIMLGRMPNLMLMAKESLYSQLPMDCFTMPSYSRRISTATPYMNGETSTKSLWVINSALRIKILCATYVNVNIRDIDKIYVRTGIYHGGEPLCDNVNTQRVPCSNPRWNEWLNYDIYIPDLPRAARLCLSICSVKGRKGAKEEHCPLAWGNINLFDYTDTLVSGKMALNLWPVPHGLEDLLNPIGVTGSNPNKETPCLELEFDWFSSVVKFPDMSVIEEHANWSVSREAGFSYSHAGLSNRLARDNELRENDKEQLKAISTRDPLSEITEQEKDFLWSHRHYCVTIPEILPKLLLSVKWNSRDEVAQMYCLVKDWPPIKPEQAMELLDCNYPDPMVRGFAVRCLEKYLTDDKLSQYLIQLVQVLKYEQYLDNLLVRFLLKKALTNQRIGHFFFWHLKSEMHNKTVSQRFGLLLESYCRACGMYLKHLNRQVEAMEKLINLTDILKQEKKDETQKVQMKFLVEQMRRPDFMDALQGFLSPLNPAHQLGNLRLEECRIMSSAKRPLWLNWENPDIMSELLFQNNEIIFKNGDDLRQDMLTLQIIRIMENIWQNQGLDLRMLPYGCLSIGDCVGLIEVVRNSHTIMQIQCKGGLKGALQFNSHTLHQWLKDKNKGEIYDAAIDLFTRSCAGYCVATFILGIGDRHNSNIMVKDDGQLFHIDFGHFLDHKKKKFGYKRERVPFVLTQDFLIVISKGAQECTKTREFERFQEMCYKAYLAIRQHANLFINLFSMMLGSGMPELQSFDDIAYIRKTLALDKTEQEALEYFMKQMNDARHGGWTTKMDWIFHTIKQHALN

HCT-116 [2] = settings: Homo sapiens, HCT-116, 72 h
MCF7 = assay: cells; settings: Homo sapiens, MCF7, 72 h
Description: Antiproliferative activity against human MCF7 cells after 72 hrs by CCK-8 assay

[3] = target: Phosphatidylinositol 4,5-bisphosphate 3-kinase catalytic subunit beta isoform (Homo sapiens, UniProt P42338); assay: Inhibition of PI3Kbeta (unknown origin) after 40 mins by kinase-Glo reagent based luminescence assay
Phosphatidylinositol 4,5-bisphosphate 3-kinase catalytic subunit beta isoform, sequence (P42338 whole entry, canonical isoform): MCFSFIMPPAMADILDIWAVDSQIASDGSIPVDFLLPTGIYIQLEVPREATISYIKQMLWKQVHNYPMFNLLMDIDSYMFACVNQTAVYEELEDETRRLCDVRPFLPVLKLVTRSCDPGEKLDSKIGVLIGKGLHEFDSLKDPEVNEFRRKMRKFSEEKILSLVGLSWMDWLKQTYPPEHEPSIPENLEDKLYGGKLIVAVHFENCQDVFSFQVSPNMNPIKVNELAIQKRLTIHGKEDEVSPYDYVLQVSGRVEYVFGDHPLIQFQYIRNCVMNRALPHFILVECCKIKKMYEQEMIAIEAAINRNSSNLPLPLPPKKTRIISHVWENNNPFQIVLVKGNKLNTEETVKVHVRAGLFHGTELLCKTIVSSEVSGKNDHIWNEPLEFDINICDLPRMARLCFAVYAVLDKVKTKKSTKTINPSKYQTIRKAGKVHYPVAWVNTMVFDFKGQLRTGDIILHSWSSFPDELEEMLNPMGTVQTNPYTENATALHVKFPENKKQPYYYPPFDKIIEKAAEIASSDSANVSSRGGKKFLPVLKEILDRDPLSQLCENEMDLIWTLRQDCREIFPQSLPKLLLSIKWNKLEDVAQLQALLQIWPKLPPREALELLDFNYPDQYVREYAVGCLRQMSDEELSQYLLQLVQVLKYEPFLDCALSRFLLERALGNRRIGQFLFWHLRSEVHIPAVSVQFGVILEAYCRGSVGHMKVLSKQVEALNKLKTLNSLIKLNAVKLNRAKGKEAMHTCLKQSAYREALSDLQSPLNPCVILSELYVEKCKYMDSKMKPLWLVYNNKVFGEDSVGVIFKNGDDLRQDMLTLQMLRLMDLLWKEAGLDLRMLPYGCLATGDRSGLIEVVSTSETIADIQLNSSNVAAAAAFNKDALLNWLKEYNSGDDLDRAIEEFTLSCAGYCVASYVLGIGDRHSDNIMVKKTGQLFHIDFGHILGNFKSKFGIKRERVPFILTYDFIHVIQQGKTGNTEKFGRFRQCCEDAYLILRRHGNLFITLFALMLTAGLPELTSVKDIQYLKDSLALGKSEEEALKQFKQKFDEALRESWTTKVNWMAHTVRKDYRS

[4] = target: Phosphatidylinositol 4,5-bisphosphate 3-kinase catalytic subunit gamma isoform (Homo sapiens, UniProt P48736); assay: Inhibition of PI3Kgamma (unknown origin) after 40 mins by kinase-Glo reagent based luminescence assay
Phosphatidylinositol 4,5-bisphosphate 3-kinase catalytic subunit gamma isoform, sequence (P48736 whole entry, canonical isoform): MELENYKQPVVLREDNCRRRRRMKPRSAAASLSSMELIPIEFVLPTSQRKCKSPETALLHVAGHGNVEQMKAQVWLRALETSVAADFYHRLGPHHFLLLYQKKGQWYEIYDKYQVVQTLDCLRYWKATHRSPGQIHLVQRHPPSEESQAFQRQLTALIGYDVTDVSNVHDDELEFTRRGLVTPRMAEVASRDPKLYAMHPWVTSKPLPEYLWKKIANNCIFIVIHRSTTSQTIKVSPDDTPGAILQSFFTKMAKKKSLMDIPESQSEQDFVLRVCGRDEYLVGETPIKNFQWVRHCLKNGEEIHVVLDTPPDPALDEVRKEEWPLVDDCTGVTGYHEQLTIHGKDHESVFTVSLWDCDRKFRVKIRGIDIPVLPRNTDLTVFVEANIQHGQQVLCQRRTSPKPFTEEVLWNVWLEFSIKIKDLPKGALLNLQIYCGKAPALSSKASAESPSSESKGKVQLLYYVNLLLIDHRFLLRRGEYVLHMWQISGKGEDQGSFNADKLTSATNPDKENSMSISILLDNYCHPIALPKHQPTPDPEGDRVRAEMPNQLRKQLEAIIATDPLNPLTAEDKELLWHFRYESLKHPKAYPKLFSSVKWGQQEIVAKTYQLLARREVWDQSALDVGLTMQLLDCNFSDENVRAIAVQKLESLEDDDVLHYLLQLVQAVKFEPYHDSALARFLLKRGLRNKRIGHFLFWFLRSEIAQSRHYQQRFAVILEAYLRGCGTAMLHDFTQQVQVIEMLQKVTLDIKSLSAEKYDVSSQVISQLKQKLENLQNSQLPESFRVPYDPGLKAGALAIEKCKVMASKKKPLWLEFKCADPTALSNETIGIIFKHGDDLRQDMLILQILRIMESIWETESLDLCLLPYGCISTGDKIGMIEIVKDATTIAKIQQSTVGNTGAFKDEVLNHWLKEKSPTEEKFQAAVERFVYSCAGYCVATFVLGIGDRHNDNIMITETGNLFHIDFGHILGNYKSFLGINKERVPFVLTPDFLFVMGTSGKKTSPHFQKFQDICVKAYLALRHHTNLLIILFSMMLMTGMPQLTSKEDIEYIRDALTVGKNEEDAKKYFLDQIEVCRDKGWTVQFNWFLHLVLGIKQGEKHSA

[5] = target: T1, Phosphatidylinositol 4,5-bisphosphate 3-kinase catalytic subunit delta isoform (Homo sapiens, UniProt O00329); assay: Inhibition of PI3Kdelta (unknown origin) after 40 mins by kinase-Glo reagent based luminescence assay
T1 sequence (O00329 whole entry): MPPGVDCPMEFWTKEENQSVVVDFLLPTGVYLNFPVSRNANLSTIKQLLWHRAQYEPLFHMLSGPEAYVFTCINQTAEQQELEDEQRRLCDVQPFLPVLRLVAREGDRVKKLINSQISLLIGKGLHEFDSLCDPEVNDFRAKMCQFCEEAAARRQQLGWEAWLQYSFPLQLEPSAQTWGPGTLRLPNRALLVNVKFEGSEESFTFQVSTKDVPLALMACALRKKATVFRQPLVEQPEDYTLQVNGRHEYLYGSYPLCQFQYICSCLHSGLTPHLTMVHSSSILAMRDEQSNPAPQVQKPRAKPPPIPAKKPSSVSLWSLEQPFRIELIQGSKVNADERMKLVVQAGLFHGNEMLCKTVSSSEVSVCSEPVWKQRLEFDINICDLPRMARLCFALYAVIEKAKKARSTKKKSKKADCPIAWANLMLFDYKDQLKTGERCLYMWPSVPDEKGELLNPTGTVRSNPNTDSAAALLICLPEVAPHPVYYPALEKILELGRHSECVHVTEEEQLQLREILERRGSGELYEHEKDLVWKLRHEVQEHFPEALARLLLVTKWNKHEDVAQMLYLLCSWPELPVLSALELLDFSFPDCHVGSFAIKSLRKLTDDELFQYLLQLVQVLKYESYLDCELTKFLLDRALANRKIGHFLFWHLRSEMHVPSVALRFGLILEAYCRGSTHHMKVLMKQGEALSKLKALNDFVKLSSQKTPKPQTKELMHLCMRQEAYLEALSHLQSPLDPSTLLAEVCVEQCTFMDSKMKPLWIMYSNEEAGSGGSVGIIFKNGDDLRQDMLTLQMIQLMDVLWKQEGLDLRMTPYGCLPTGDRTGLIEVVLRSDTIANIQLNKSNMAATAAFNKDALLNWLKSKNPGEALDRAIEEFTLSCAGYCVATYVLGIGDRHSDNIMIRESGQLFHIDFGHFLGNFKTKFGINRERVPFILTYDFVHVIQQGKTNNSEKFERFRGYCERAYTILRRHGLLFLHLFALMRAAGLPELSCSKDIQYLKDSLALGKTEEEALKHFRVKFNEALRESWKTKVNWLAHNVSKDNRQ

[6] = target: Phosphatidylinositol 4,5-bisphosphate 3-kinase catalytic subunit alpha isoform (Homo sapiens, UniProt P42336); assay: Inhibition of wild type PI3Kalpha (unknown origin) after 40 mins by kinase-Glo reagent based luminescence assay
Phosphatidylinositol 4,5-bisphosphate 3-kinase catalytic subunit alpha isoform (Homo sapiens, UniProt P42336), sequence (P42336 whole entry, canonical isoform): as the sequence (P42336 whole entry H1047R, canonical isoform) above, with R1047H counted along it

[7] = Inhibition of mTORC1 (unknown origin) after 40 mins by kinase-Glo reagent based luminescence assay; set-up: species or system Homo sapiens
HCT-116 [8] = assay: Induction of apoptosis in human HCT116 cells assessed as early apoptotic cells at 5 uM after 24 hrs by Annexin V-FITC/PI staining based flow cytometry (reference value: 4.07%); assay type: functional
HCT-116 [9] = assay: Induction of apoptosis in human HCT116 cells assessed as late apoptotic cells at 5 uM after 24 hrs by Annexin V-FITC/PI staining based flow cytometry (reference value: 2.35%); assay type: functional
HCT-116 [10] = assay: Induction of apoptosis in human HCT116 cells assessed as viable cells at 5 uM after 24 hrs by Annexin V-FITC/PI staining based flow cytometry (reference value: 93%); assay type: functional; settings: HCT-116, 24 h, read-out: Activity
HCT-116 [11] = assay: Induction of apoptosis in human HCT116 cells assessed as necrotic cells at 5 uM after 24 hrs by Annexin V-FITC/PI staining based flow cytometry (reference value: 0.39%); assay type: functional
HCT-116 [12] = assay: Induction of autophagy in human HCT116 cells assessed as autophagic vacuole formation at 5 uM after 6 hrs by MDC staining based fluorescence microscopic analysis; assay type: functional, cell-based
HCT-116 [13] = assay: Induction of autophagy in human HCT116 cells assessed as accumulation of GFP/mRFP-tagged LC3 accumulation in cytoplasm after 12 hrs by laser scanning confocal microscopic analysis; assay type: functional, cell-based

Structure (SMILES)	EC50 [1] [µM]	IC50 (HCT-116 [2]) [µM]	IC50 (MCF7) [µM]	further results
Oc1ccc(-c2n[nH]cc2-c2ccc(Cl)c(Cl)c2)c(O)c1O	–	–	–	EC50 [3]: 5.7 µM; EC50 [4]: 10 µM; EC50 [5]: 19.1 µM
O=C(Cc1ccc(Cl)cc1)c1ccc(O)cc1O	196	> 50	> 50	–
O=C(Cc1ccc(Cl)cc1)c1c(O)cc(O)cc1O	115	> 50	> 50	EC50 [6]: 79.3 µM
Cn1c(=O)n(-c2ccc(C(C)(C)C#N)cc2)c2c3cc(-c4cnc5ccccc5c4)ccc3ncc21 [DACTOLISIB]	–	–	–	EC50 [7]: 0.079 µM
COc1ccc(CC(=O)c2ccc(O)c(O)c2O)cc1OC	242	> 50	> 50	–
O=C(Cc1ccc(Cl)cc1)c1cccc(O)c1O	> 500	> 50	> 50	–
O=C(Cc1ccccc1F)c1ccc(O)c(O)c1O	> 500	> 50	> 50	–
FC(F)c1nc2ccccc2n1-c1nc(N2CCOCC2)nc(N2CCOCC2)n1 [ZSTK-474]	–	1.31	5.27	Activity (HCT-116 [8]): 5.6%; Activity (HCT-116 [9]): 1.29%; viability at 5 µM (HCT-116 [10]): 92%; Activity (HCT-116 [11]): 0.2%; Activity (HCT-116 [12]): Active; Activity (HCT-116 [13]): Dose-dependent effect
O=C(Cc1ccc(C(F)(F)F)cc1)c1ccc(O)c(O)c1O	58.4	> 50	> 50	–

Further lines, with some results ahead:

EC50 [1] [µM]	IC50 (HCT-116 [2]) [µM]	IC50 (MCF7) [µM]	Structure (SMILES)	further results
8.9	35.5	48.9	O=C(Cc1ccc(Cl)c(Cl)c1)c1ccc(O)c(O)c1O	–
> 500	> 50	> 50	O=C(Cc1ccccc1Cl)c1ccc(O)c(O)c1O	–
9.7	47.3	> 50	O=C(Cc1ccc(F)c(Cl)c1)c1ccc(O)c(O)c1O	–
69.3	> 50	> 50	O=C(Cc1ccc(Cl)cc1)c1ccc(O)c(O)c1O	EC50 [6]: 35.2 µM
98.2	> 50	> 50	O=C(Cc1cccc(Cl)c1)c1ccc(O)c(O)c1O	–
170	> 50	> 50	O=C(Cc1ccc(F)cc1)c1ccc(O)c(O)c1O	–
